From publication PMC12521730, “Quantitative dual-isotope preclinical SPECT/CT imaging and biodistribution of the mercury-197m/g theranostic pair with [^197m/gHg]HgCl2 and a [^197m/gHg]Hg-tetrathiol complex as a platform for radiopharmaceutical development” (EJNMMI Radiopharmacy and Chemistry, 2025)
“Also recorded” adds a separate entry of the source.

Assay: In vivo SPECT/CT imaging
Parameters: species or system healthy male C57BL/6 mice
Settings: for organs of tracer accumulation (qualitative): 0-2 h post injection
Method: For animal injection, the tracer was prepared at high molar activity. Radiolabeling of H4Tetrathiol (10^–2 M in DMSO; 40 μL for imaging, 20 μL for bioD) (or DMSO, for [^197m/gHg]HgCl2 mice) with [^197m/gHg]HgCl2 (imaging: 26.7 MBq total m + g, 62 μL; bioD: 13.04 MBq total m + g, 31 μL) was performed in a mixture of ammonium acetate buffer (1 M; pH 7; 198 μL for imaging or 149 μL for bioD) and 6 M NaOH (72 μL or 38 μL required to achieve a pH of 7.5 after addition of activity, for imaging or BioD labeling, respectively). The reaction was allowed to stand for 1 h at 37 °C and quantitative (> 99%) non-isolated percentage radiochemical yield (%RCY) was confirmed via the iTLC methods mentioned above. Further, 100 µL of the reaction was diluted with 50 µL of PBS Tween-20 (0.01 M sodium phosphate, 0.15 M NaCl, 0.05% Tween-20) for imaging mice, or 50 µL of the reaction was diluted with 100 µL of PBS Tween-20 for BioD mice. The tracers were prepared immediately before injection to avoid radiolysis and minimize the tracer loss to any surfaces due to its lipophilicity. The injected doses of each isomer, ^197mHg and ^197gHg, were quantified by measuring an aliquot of known volume of each tracer preparation via HPGe gamma spectroscopy and decay corrected for time of injection using the Eqs. (1) and (2).
The study was conducted in compliance with the guidelines set by the Canadian Council on Animal Care (CCAC) and approved by the Animal Care Committee (ACC) at the University of British Columbia (A20-0132). A total of eight healthy male C57BL/6 mice weighing approximately 30 g for group 1 and 25 g for group 2 were used in the study. The mice were divided into two experimental groups: group 1 (n = 4) received free [^197m/gHg]HgCl2, while group 2 (n = 4) received [^197m/gHg]Hg-Tetrathiol. Within each group, one mouse was allocated for imaging, while the rest were designated for ex vivo biodistribution analysis. For SPECT imaging, the designated mice were anesthetized using isoflurane via a precision vaporizer. […] Once anesthetized, each imaging mouse received an intravenous (IV) injection via the lateral tail vein of 150 μL of [^197m/gHg]HgCl2 (0.492 MBq ^197mHg + 3.171 MBq ^197gHg) or [^197m/gHg]Hg-Tetrathiol (0.899 MBq ^197mHg + 4.230 MBq ^197gHg) in PBS Tween-20 (0.01 M Na Phosphate, 0.15 M NaCl, 0.05% Tween-20).
The animals were immediately placed in the scanner and whole-body scans were acquired dynamically during 120 min post-injection (6 frames × 20 min/frame). Throughout the entire scanning procedure, mice were kept under isoflurane anesthesia and body temperature was maintained constant using a heated imaging bed. […] These energy window settings yielded the optimum, and most robust quantification results based on the phantom experiments (vide supra). […]

Compound	organs of tracer accumulation (qualitative)	organs of tracer accumulation (qualitative) (listed as [^197m/gHg]Hg-tetrathiol)	blood clearance and excretion (qualitative) (compared with [197m/gHg]HgCl2)
[Cl][Hg][Cl] [[^197m/gHg]HgCl2]	primarily accumulating in the kidneys; also recorded: strong affinity for the kidneys		
O=C(CC[S-])OCC(COC(=O)CC[S-])(COC(=O)CC[S-])COC(=O)CC[S-].[Hg+2] [[^197m/gHg]Hg-Tetrathiol]	predominantly accumulates in the spleen and liver	tracer accumulation primarily in the liver and spleen	faster blood clearance and excretion through the reticuloendothelial system (RES)
